Data reported in PubChem BioAssay AID2060619 (Molecular Pharmacology Branch, DTP, NCI, 2025).

Test system: 323965-272-R-J2-PDC complex spheroid viability
Assay: Anticancer human tumor 323965-272-R-J2-PDC patient-derived pancreatic carcinoma cell line growth inhibition [CLK]
Details: for IC50: curve of first compound; for viability, T/C: stronger effect = lower value
How it was run: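 Multi-cell-type spheroids combined patient-derived tumor cells with HUVEC endothelial cells and human mesenchymal stem cells. Paired agents were dosed in half-log steps down from about clinical Cmax, or from 10 microM where Cmax was unknown.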
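Also: spheroids exposed to agents for seven days before readout.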
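For viability, T/C in this document: percent of DMSO vehicle control wells so 100% = untreated growth.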

IC50 (second compound 0.0316 µM): 2.1 µM
IC50 (second compound 0.1 µM): 1.68 µM
IC50 (second compound 0.316 µM): 1.18 µM
IC50 (second compound 1 µM): < 0.0316 µM
IC50 (second compound 3.16 µM): < 0.0316 µM
IC50 (second compound 10 µM): < 0.0316 µM
Structure (SMILES): CC1COCCN1c1cc(C2(S(C)(=N)=O)CC2)nc(-c2ccnc3[nH]ccc23)n1 (configuration not stated) + CNC(=O)c1ccc(Nc2nc(OC3CCCC3)c3c(-c4ccc5nc(C)oc5c4)c[nH]c3n2)c(OC)c1
viability, T/C (second compound 0.0316 µM, first compound 0.0316 µM): 109%
viability, T/C (second compound 0.0316 µM, first compound 0.1 µM): 106%
viability, T/C (second compound 0.0316 µM, first compound 0.316 µM): 90.7%
viability, T/C (second compound 0.0316 µM, first compound 1 µM): 70.1%
viability, T/C (second compound 0.0316 µM, first compound 3.16 µM): 38.2%
viability, T/C (second compound 0.0316 µM, first compound 10 µM): 25.6%
viability, T/C (second compound 0.1 µM, first compound 0.0316 µM): 94%
viability, T/C (second compound 0.1 µM, first compound 0.1 µM): 93.8%
viability, T/C (second compound 0.1 µM, first compound 0.316 µM): 64.2%
viability, T/C (second compound 0.1 µM, first compound 1 µM): 64.2%
viability, T/C (second compound 0.1 µM, first compound 3.16 µM): 37.8%
viability, T/C (second compound 0.1 µM, first compound 10 µM): 33.9%
viability, T/C (second compound 0.316 µM, first compound 0.0316 µM): 58.5%
viability, T/C (second compound 0.316 µM, first compound 0.1 µM): 61.5%
viability, T/C (second compound 0.316 µM, first compound 0.316 µM): 61.2%
viability, T/C (second compound 0.316 µM, first compound 1 µM): 51.1%
viability, T/C (second compound 0.316 µM, first compound 3.16 µM): 37.4%
viability, T/C (second compound 0.316 µM, first compound 10 µM): 27.7%
viability, T/C (second compound 1 µM, first compound 0.0316 µM): 43.4%
viability, T/C (second compound 1 µM, first compound 0.1 µM): 48.9%
viability, T/C (second compound 1 µM, first compound 0.316 µM): 40.7%
viability, T/C (second compound 1 µM, first compound 1 µM): 33.8%
viability, T/C (second compound 1 µM, first compound 3.16 µM): 24%
viability, T/C (second compound 1 µM, first compound 10 µM): 18.7%
viability, T/C (second compound 3.16 µM, first compound 0.0316 µM): 41.7%
viability, T/C (second compound 3.16 µM, first compound 0.1 µM): 36.9%
viability, T/C (second compound 3.16 µM, first compound 0.316 µM): 39.2%
viability, T/C (second compound 3.16 µM, first compound 1 µM): 31.5%
viability, T/C (second compound 3.16 µM, first compound 3.16 µM): 24.1%
viability, T/C (second compound 3.16 µM, first compound 10 µM): 18.7%
viability, T/C (second compound 10 µM, first compound 0.0316 µM): 46.8%
viability, T/C (second compound 10 µM, first compound 0.1 µM): 42.6%
viability, T/C (second compound 10 µM, first compound 0.316 µM): 38.5%
viability, T/C (second compound 10 µM, first compound 1 µM): 28.5%
viability, T/C (second compound 10 µM, first compound 3.16 µM): 22%
viability, T/C (second compound 10 µM, first compound 10 µM): 16.8%
